This data set in a line: Side effect profile of pediatric leukemia patients during busulfan preconditioning for bone marrow transplantation. Type of data set: in vivo, human. As for the experimental part: Firstly, an analysis was conducted on 146 pediatric leukemia patients showing warning signs of serious side effects during treatment with the anticancer agent busulfan (Myleran, GlaxoSmithKline, Busulfex IV, Otsuka America Pharmaceutical, Inc.) to remove bone marrow as a preconditioning for bone marrow transplantation.

The mark [1] stands for this setting: of 146 pediatric leukemia patients treated with busulfan.

As for `CS(=O)(=O)OCCCCOS(C)(=O)=O` [Busulfan], where the note is “human, in vivo”, the “Number of patients: AUC 170 or higher” value came out at 71, the “Number of patients: Hepatic veno-occlusive disease” value is 18, the “Number of patients: Intermediate toxicity grade 3 or higher” value was determined as 11 and the “Number of patients: Intermediate toxicity grade 4 or higher” value is 1. Further, for the setting “human, in vivo”, the “Number of patients: Short-term toxicity grade 3 or higher” value is 31 and the “Number of patients: Short-term toxicity grade 4 or higher” value is 2. Also, under setting [1], the “Number of patients: Death” value is 36 and the “Number of patients: Toxicity-related death” value came to 22.

The record behind these values is patent US11195594B2, “Method for selecting anticancer agent based on protein damage information of individual to prevent anticancer agent side effects” (CIPHEROME, INC., priority 2015, dated 2021).
